Values quoted from earlier work, collected in patent US12016830B2, “Pharmaceutical compositions comprising isotretinoin and processes for preparation and uses thereof” (Acrotech Biopharma Inc., priority 2022, dated 2024).

Conditions: background statement

oral bioavailability: low oral bioavailability
Compound: CC1=C(/C=C/C(C)=C/C=C/C(C)=C\C(=O)O)C(C)(C)CCC1 [Isotretinoin, 13-cis retinoic acid]
